Here are results for nine molecules from patent US20240116998A1, “GLUCAGON-LIKE PEPTIDE-1 RECEPTOR ANTAGONISTS” (INDIANA UNIVERSITY RESEARCH AND TECHNOLOGY CORPORATION, priority 2021, published 2024).

Structures are written as SMILES. Values after ≈ are worked out from the molar mass of the structure shown. Non-standard residues stand in square brackets, D forms with d. Residues, ends and D or L forms follow the SMILES beside them. *: point of attachment. Palmitoyl = CCCCCCCCCCCCCCCC(=O)*; Aib = CC(C)(N)C(=O)O

The first series is described as follows: Solubility of peptides in buffer. As to conditions: Table 3; 80 mM AmBicarb pH 7.7; unit not given. It counts as physicochemical.
Take `CCCCCCCCCCCCCCCC(=O)NCCCC[C@H](NC(=O)[C@H](CO)NC(=O)[C@@H]1CCCN1C(=O)[C@@H]1CCCN1C(=O)[C@@H]1CCCN1C(=O)[C@H](C)NC(=O)CNC(=O)[C@H](CO)NC(=O)[C@H](CO)NC(=O)[C@@H]1CCCN1C(=O)CNC(=O)CNC(=O)[C@H](CCCNC(=N)N)NC(=O)[C@@H](NC(=O)[C@H](CC(C)C)NC(=O)[C@H](Cc1c[nH]c2ccccc12)NC(=O)[C@H](CCC(=O)O)NC(=O)[C@@H](NC(=O)[C@H](Cc1ccccc1)NC(=O)[C@H](CCC(=O)O)NC(=O)[C@H](CCCNC(=N)N)NC(=O)[C@@H](NC(=O)[C@H](C)NC(=O)[C@H](CCC(=O)O)NC(=O)[C@H](CCC(=O)O)NC(=O)[C@H](CCC(=O)O)NC(=O)[C@H](CC(C)C)NC(=O)[C@H](Cc1ccc(O)cc1)NC(=O)[C@H](CCCNC(=N)N)NC(=O)[C@H](CO)NC(=O)[C@@H](NC(=O)[C@@H](N)CC(=O)O)C(C)C)C(C)C)[C@@H](C)CC)C(C)C)C(N)=O` [SEQ ID NO: 75] (H-DVSRYLEEEAVREFIEWLVRGGPSSGAPPPSK(Palmitoyl)-NH2): the “Solubility 80 mM AmBicarb pH 7.7” value is listed as 18.5. For `CCCCCCCCCCCCCCCC(=O)NCCCC[C@H](NC(=O)[C@H](CO)NC(=O)[C@@H]1CCCN1C(=O)[C@@H]1CCCN1C(=O)[C@@H]1CCCN1C(=O)[C@H](C)NC(=O)CNC(=O)[C@H](CO)NC(=O)[C@H](CO)NC(=O)[C@@H]1CCCN1C(=O)CNC(=O)CNC(=O)[C@H](CCCNC(=N)N)NC(=O)[C@@H](NC(=O)[C@H](CC(C)C)NC(=O)[C@H](Cc1c[nH]c2ccccc12)NC(=O)[C@H](CCC(=O)O)NC(=O)[C@@H](NC(=O)[C@H](Cc1ccccc1)NC(=O)[C@H](CCC(=O)O)NC(=O)[C@H](CCCNC(=N)N)NC(=O)[C@@H](NC(=O)[C@H](C)NC(=O)[C@H](CCC(=O)O)NC(=O)[C@H](CCC(=O)O)NC(=O)[C@H](CCC(=O)O)NC(=O)[C@H](CC(C)C)NC(=O)[C@H](Cc1ccc(O)cc1)NC(=O)[C@H](CO)NC(=O)[C@H](CO)NC(=O)[C@@H](NC(=O)[C@@H](N)CC(=O)O)C(C)C)C(C)C)[C@@H](C)CC)C(C)C)C(N)=O` [SEQ ID NO: 72] (H-DVSSYLEEEAVREFIEWLVRGGPSSGAPPPSK(Palmitoyl)-NH2; N-terminus assumed), the “Solubility 80 mM AmBicarb pH 7.7” value is given as >20.

Staying with this series, now noted: pH 7.4.
For the molecule `CCCCCCCCCCCCCCCC(=O)NCCCC[C@H](NC(=O)[C@H](CO)NC(=O)[C@@H]1CCCN1C(=O)[C@@H]1CCCN1C(=O)[C@@H]1CCCN1C(=O)[C@H](C)NC(=O)CNC(=O)[C@H](CO)NC(=O)[C@H](CO)NC(=O)[C@@H]1CCCN1C(=O)CNC(=O)CNC(=O)[C@H](CCCCN)NC(=O)[C@@H](NC(=O)[C@H](CC(C)C)NC(=O)[C@H](Cc1c[nH]c2ccccc12)NC(=O)[C@H](C)NC(=O)[C@@H](NC(=O)[C@H](Cc1ccccc1)NC(=O)[C@H](CCC(=O)O)NC(=O)[C@H](CCCNC(=N)N)NC(=O)C(C)(C)NC(=O)[C@H](C)NC(=O)[C@H](CCC(N)=O)NC(=O)[C@H](CCC(=O)O)NC(=O)[C@H](CCC(=O)O)NC(=O)[C@H](CC(C)C)NC(=O)[C@H](Cc1ccc(O)cc1)NC(=O)[C@H](CO)NC(=O)[C@H](CO)NC(=O)[C@@H](NC(=O)[C@@H](N)CC(=O)O)C(C)C)[C@@H](C)CC)C(C)C)C(N)=O` [SEQ ID NO: 45] (H-DVSSYLEEQA[Aib]REFIAWLVKGGPSSGAPPPSK(Palmitoyl)-NH2; N-terminus assumed), the solubility came out at 400 µg/mL (≈ 110 µM). `CCCCCCCCCCCCCCCC(=O)NCCCC[C@H](NC(=O)[C@H](CO)NC(=O)[C@@H]1CCCN1C(=O)[C@@H]1CCCN1C(=O)[C@@H]1CCCN1C(=O)[C@H](C)NC(=O)CNC(=O)[C@H](CO)NC(=O)[C@H](CO)NC(=O)[C@@H]1CCCN1C(=O)CNC(=O)CNC(=O)[C@H](CCCCN)NC(=O)[C@@H](NC(=O)[C@H](CC(C)C)NC(=O)[C@H](Cc1c[nH]c2ccccc12)NC(=O)C(C)(C)NC(=O)[C@@H](NC(=O)[C@H](Cc1ccccc1)NC(=O)[C@H](CCC(=O)O)NC(=O)[C@H](CCCNC(=N)N)NC(=O)[C@@H](NC(=O)[C@H](C)NC(=O)[C@H](CCC(N)=O)NC(=O)[C@H](CCC(=O)O)NC(=O)[C@H](CCC(=O)O)NC(=O)[C@H](CC(C)C)NC(=O)[C@H](Cc1ccc(O)cc1)NC(=O)[C@H](CO)NC(=O)[C@H](CO)NC(=O)[C@@H](NC(=O)[C@@H](N)CC(=O)O)C(C)C)C(C)C)[C@@H](C)CC)C(C)C)C(N)=O` [SEQ ID NO: 83] (H-DVSSYLEEQAVREFI[Aib]WLVKGGPSSGAPPPSK(Palmitoyl)-NH2; N-terminus assumed) came in with a solubility of 300 µg/mL (≈ 82.1 µM). Still for that read-out and setting: next, `CCCCCCCCCCCCCCCC(=O)NCCCC[C@H](NC(=O)[C@H](CO)NC(=O)[C@@H]1CCCN1C(=O)[C@@H]1CCCN1C(=O)[C@@H]1CCCN1C(=O)[C@H](C)NC(=O)CNC(=O)[C@H](CO)NC(=O)[C@H](CO)NC(=O)[C@@H]1CCCN1C(=O)CNC(=O)CNC(=O)C(C)(C)NC(=O)[C@H](CCCCN)NC(=O)[C@H](CC(C)C)NC(=O)[C@H](Cc1c[nH]c2ccccc12)NC(=O)[C@H](C)NC(=O)[C@@H](NC(=O)[C@H](Cc1ccccc1)NC(=O)[C@H](CCC(=O)O)NC(=O)[C@H](CCCNC(=N)N)NC(=O)[C@@H](NC(=O)[C@H](C)NC(=O)[C@H](CCC(N)=O)NC(=O)[C@H](CCC(=O)O)NC(=O)[C@H](CCC(=O)O)NC(=O)[C@H](CC(C)C)NC(=O)[C@H](Cc1ccc(O)cc1)NC(=O)[C@H](CO)NC(=O)[C@H](CO)NC(=O)[C@@H](NC(=O)[C@@H](N)CC(=O)O)C(C)C)C(C)C)[C@@H](C)CC)C(N)=O` [SEQ ID NO: 43]: 200 µg/mL (≈ 55.2 µM); `CCCCCCCCCCCCCCCC(=O)NCCCC[C@H](NC(=O)[C@H](CO)NC(=O)[C@@H]1CCCN1C(=O)[C@@H]1CCCN1C(=O)[C@@H]1CCCN1C(=O)[C@H](C)NC(=O)CNC(=O)[C@H](CO)NC(=O)[C@H](CO)NC(=O)[C@@H]1CCCN1C(=O)CNC(=O)CNC(=O)[C@H](CCCCN)NC(=O)C(C)(C)NC(=O)[C@H](CC(C)C)NC(=O)[C@H](Cc1c[nH]c2ccccc12)NC(=O)[C@H](C)NC(=O)[C@@H](NC(=O)[C@H](Cc1ccccc1)NC(=O)[C@H](CCC(=O)O)NC(=O)[C@H](CCCNC(=N)N)NC(=O)[C@@H](NC(=O)[C@H](C)NC(=O)[C@H](CCC(N)=O)NC(=O)[C@H](CCC(=O)O)NC(=O)[C@H](CCC(=O)O)NC(=O)[C@H](CC(C)C)NC(=O)[C@H](Cc1ccc(O)cc1)NC(=O)[C@H](CO)NC(=O)[C@H](CO)NC(=O)[C@@H](NC(=O)[C@@H](N)CC(=O)O)C(C)C)C(C)C)[C@@H](C)CC)C(N)=O` [SEQ ID NO: 81] (H-DVSSYLEEQAVREFIAWL[Aib]KGGPSSGAPPPSK(Palmitoyl)-NH2; N-terminus assumed): 1600 µg/mL (≈ 441 µM); `CCCCCCCCCCCCCCCC(=O)NCCCC[C@H](NC(=O)[C@H](CO)NC(=O)[C@@H]1CCCN1C(=O)[C@@H]1CCCN1C(=O)[C@@H]1CCCN1C(=O)[C@H](C)NC(=O)CNC(=O)[C@H](CO)NC(=O)[C@H](CO)NC(=O)[C@@H]1CCCN1C(=O)CNC(=O)CNC(=O)[C@H](CCCCN)NC(=O)[C@@H](NC(=O)[C@H](CC(C)C)NC(=O)[C@H](Cc1c[nH]c2ccccc12)NC(=O)[C@H](C)NC(=O)[C@@H](NC(=O)[C@H](Cc1ccccc1)NC(=O)[C@H](CCC(=O)O)NC(=O)[C@H](CCCNC(=N)N)NC(=O)[C@@H](NC(=O)[C@H](C)NC(=O)[C@H](CCC(N)=O)NC(=O)C(C)(C)NC(=O)[C@H](CCC(=O)O)NC(=O)[C@H](CC(C)C)NC(=O)[C@H](Cc1ccc(O)cc1)NC(=O)[C@H](CO)NC(=O)[C@H](CO)NC(=O)[C@@H](NC(=O)[C@@H](N)CC(=O)O)C(C)C)C(C)C)[C@@H](C)CC)C(C)C)C(N)=O` [SEQ ID NO: 84] (H-DVSSYLE[Aib]QAVREFIAWLVKGGPSSGAPPPSK(Palmitoyl)-NH2; N-terminus assumed): 200 µg/mL (≈ 55.6 µM). `CCCCCCCCCCCCCCCC(=O)NCCCC[C@H](NC(=O)[C@H](CO)NC(=O)[C@@H]1CCCN1C(=O)[C@@H]1CCCN1C(=O)[C@@H]1CCCN1C(=O)[C@H](C)NC(=O)CNC(=O)[C@H](CO)NC(=O)[C@H](CO)NC(=O)[C@@H]1CCCN1C(=O)CNC(=O)CNC(=O)C(C)(C)NC(=O)[C@@H](NC(=O)[C@H](CCCCN)NC(=O)[C@H](Cc1c[nH]c2ccccc12)NC(=O)[C@H](C)NC(=O)[C@@H](NC(=O)[C@H](Cc1ccccc1)NC(=O)[C@H](CCC(=O)O)NC(=O)[C@H](CCCNC(=N)N)NC(=O)[C@@H](NC(=O)[C@H](C)NC(=O)[C@H](CCC(N)=O)NC(=O)[C@H](CCC(=O)O)NC(=O)[C@H](CCC(=O)O)NC(=O)[C@H](CC(C)C)NC(=O)[C@H](Cc1ccc(O)cc1)NC(=O)[C@H](CO)NC(=O)[C@H](CO)NC(=O)[C@@H](NC(=O)[C@@H](N)CC(=O)O)C(C)C)C(C)C)[C@@H](C)CC)C(C)C)C(N)=O` [SEQ ID NO: 82] gave a solubility of 100 µg/mL (≈ 27.7 µM). For `CCCCCCCCCCCCCCCC(=O)NCCCC[C@H](NC(=O)[C@H](CO)NC(=O)[C@@H]1CCCN1C(=O)[C@@H]1CCCN1C(=O)[C@@H]1CCCN1C(=O)[C@H](C)NC(=O)CNC(=O)[C@H](CO)NC(=O)[C@H](CO)NC(=O)[C@@H]1CCCN1C(=O)CNC(=O)CNC(=O)[C@H](CCCCN)NC(=O)[C@@H](NC(=O)[C@H](CC(C)C)NC(=O)[C@H](Cc1c[nH]c2ccccc12)NC(=O)[C@H](C)NC(=O)[C@@H](NC(=O)[C@H](Cc1ccccc1)NC(=O)[C@H](CCC(=O)O)NC(=O)[C@H](CCCNC(=N)N)NC(=O)[C@@H](NC(=O)C(C)(C)NC(=O)[C@H](CCC(N)=O)NC(=O)[C@H](CCC(=O)O)NC(=O)[C@H](CCC(=O)O)NC(=O)[C@H](CC(C)C)NC(=O)[C@H](Cc1ccc(O)cc1)NC(=O)[C@H](CO)NC(=O)[C@H](CO)NC(=O)[C@@H](NC(=O)[C@@H](N)CC(=O)O)C(C)C)C(C)C)[C@@H](C)CC)C(C)C)C(N)=O` [SEQ ID NO: 46] (H-DVSSYLEEQ[Aib]VREFIAWLVKGGPSSGAPPPSK(Palmitoyl)-NH2; N-terminus assumed), the solubility amounted to 700 µg/mL (≈ 192 µM).
